Consider 53 molecules from patent US11478460B2, “Diaryl substituted 6,5-fused ring compounds as C5aR inhibitors” (CHEMOCENTRYX, INC., priority 2017, dated 2022).

Structures are written as SMILES.

The experiment deals with C5aR (Homo sapiens (Human), UniProt P21730). Kind of experiment: Chemotaxis assay using U937 cells (C5aR mediated migration). The class given is cell-based. The settings on record: read-out: Mig IC50. As for the experimental part: U937 cells are a monocytic cell line which express C5aR, and are available from ATCC (VA). These cells were cultured as a suspension in RPMI-1640 medium supplemented with 2 mM L-glutamine, 1.5 g/L sodium bicarbonate, 4.5 g/L glucose, 10 mM HEPES, 1 mM sodium pyruvate, and 10% FBS. Cells were grown under 5% CO2/95% air, 100% humidity at 37° C. and subcultured twice weekly at 1:6 (cells were cultured at a density range of 1×10^5 to 2×10^6 cells/mL) and harvested at 1×10^6 cells/mL. Prior to assay, cells are treated overnight with 0.5 mM of cyclic AMP (Sigma, OH) and washed once prior to use. cAMP treated U937 cells can be used in C5aR ligand binding and functional assays.
Optionally, compounds may be further assayed for their ability to inhibit chemotaxis in cells. Chemotaxis assays are performed using 5 μm pore polycarbonate, polyvinylpyrrolidone-coated filters in 96-well chemotaxis chambers (Neuroprobe; Gaithersburg, Md.) using chemotaxis buffer (Hank's balanced salt solution (HBSS) and 1% FBS). C5aR ligands (i.e., C5a, R&D Systems; Minneapolis, Minn.) are use to evaluate compound mediated inhibition of C5aR mediated migration. Other chemokines (i.e., SDF-1α; R&D Systems; Minneapolis, Minn.) are used as specificity controls. The lower chamber is loaded with 29 μl of chemokine (i.e., 0.03 nM C5a) and varying amounts of compound; the top chamber contains 100,000 U937 or neutrophil cells in 20 μl. The chambers are incubated 1.5 hours at 37° C., and the number of cells in the lower chamber quantified either by direct cell counts in five high powered fields per well or by the CyQuant assay (Molecular Probes), a fluorescent dye method that measures nucleic acid content and microscopic observation.
The compounds in Table 1, below, were prepared using the methods described above. Characterization data is provided for each compound listed. Activity is provided as follows for the chemotaxis assay using U937 cells as described herein (Example 12): +, 500 nM<IC50; ++, 50 nM<IC50≤500 nM; +++, 5 nM<IC50≤50 nM; and ++++, IC50≤5 nM.

By IC50 is commonly meant the concentration that gives 50% inhibition.

C5aR, sequence (P21730 whole entry): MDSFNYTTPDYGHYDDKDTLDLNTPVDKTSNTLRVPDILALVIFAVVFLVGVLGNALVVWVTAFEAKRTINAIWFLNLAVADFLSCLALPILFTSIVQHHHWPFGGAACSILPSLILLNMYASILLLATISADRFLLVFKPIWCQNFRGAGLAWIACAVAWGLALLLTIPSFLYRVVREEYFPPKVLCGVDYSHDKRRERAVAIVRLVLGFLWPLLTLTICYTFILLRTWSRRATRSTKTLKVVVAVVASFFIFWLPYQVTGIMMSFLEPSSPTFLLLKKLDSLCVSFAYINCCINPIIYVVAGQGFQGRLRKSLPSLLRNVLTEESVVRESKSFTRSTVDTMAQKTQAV

`Cc1ccc(C(C)(C)C)cc1N1CCc2nn(-c3c(C)cccc3CC(C)C)c(-c3ccc(N(C)C(N)=O)cc3)c2C1` [Example 1.400]: the IC50 is more than 500 nM.

For the molecule `Cc1cccc(C)c1-n1nc2c(c1-c1cc(F)c(NC(N)=O)cc1F)CN(c1ccccc1Cl)CC2` [Example 1.103], the IC50 was not above 5 nM.

In the case of `CCC(C)N1CCc2nn(-c3c(C)cccc3OCC(C)C)c(-c3ccc(NC(N)=O)c(F)c3)c2C1` (centres unmarked) [Example 1.259], the IC50 lay within 5 to 50 nM.

For `Cc1cccc(OCC(C)C)c1-n1nc2c(c1-c1ccc(NC(N)=O)cc1)CN(Cc1cc(Cl)ccc1F)CC2` [Example 1.309], the IC50 was not above 5 nM.

For `Cc1cccc(C)c1-n1nc2c(c1-c1ccc(C(N)=O)c(F)c1)CN(c1ncc(Cl)cc1Cl)CC2` [Example 1.110], the IC50 was more than 500 nM.

Turning to `COc1cccc(C)c1-n1nc2c(c1-c1ccc(NC(N)=O)cc1)CN(c1ncccc1C)CC2` [Example 1.408], the IC50 lay within 50 to 500 nM.

Regarding `Cc1cccc(OCC(C)C)c1-n1nc2c(c1-c1ccc(NC(N)=O)c(F)c1)CN([C@@H](C)C(C)C)CC2` [Example 1.257], the IC50 was not above 5 nM.

For `CCc1cccc(CC)c1-n1nc2c(c1-c1cc(F)c(NC(N)=O)cc1F)CN(Cc1ccc(C)cc1C(F)(F)F)CC2` [Example 1.034], the IC50 is not above 5 nM.

Turning to `Cc1cccc(C)c1-n1nc2c(c1-c1cc(F)c(NC(N)=O)cc1F)CN(C(CO)c1ccccc1)CC2` (centres unmarked) [Example 1.087], the IC50 was in the range of 50 to 500 nM.

On to `CCc1cccc(CC)c1-n1nc2c(c1-c1cc(F)c(NC(N)=O)cc1F)CN(Cc1ccc(C#N)cc1C(F)(F)F)CC2` [Example 1.048], for which the IC50 was not above 5 nM.

In the case of `Cc1cccc(C)c1-n1nc2c(c1-c1cc(F)c(NC(N)=O)cc1F)CN(C(C)(C)CO)CC2` [Example 1.088], the IC50 was more than 500 nM.

Turning to `Cc1cccc(OCC(C)C)c1-n1nc2c(c1-c1ccc(NC(N)=O)cc1)CN(c1cc(C(C)(C)C)ccc1F)CC2` [Example 1.421], the IC50 was not above 5 nM.

Regarding `CCC(C)(C)CN1CCc2nn(-c3c(C)cccc3OCC(C)C)c(-c3ccc(NC(N)=O)cc3)c2C1` [Example 1.381], the IC50 lay within 5 to 50 nM.

On to `Cc1cccc(OCC(C)C)c1-n1nc2c(c1-c1ccc(NC(N)=O)cc1)CN(c1ccccc1C(C)C)CC2` [Example 1.474], for which the IC50 is not above 5 nM.

`Cc1cccc(C)c1-n1nc2c(c1-c1cc(F)c(NC(N)=O)cc1F)CN(C(C)(C)c1ccccc1)CC2` [Example 1.146]: the IC50 was not above 5 nM.

`CCc1cccc(CC)c1-n1nc2c(c1-c1ccc(NC(N)=O)c(F)c1)CN(CC(C)(C)C)CC2` [Example 1.253]: the IC50 is not above 5 nM.

Regarding `NC(=O)Nc1cc(F)c(-c2c3c(nn2-c2ccccc2OCC(F)(F)F)CCN(c2ncc(Cl)cc2Cl)C3)cc1F` [Example 1.143], the IC50 was not above 5 nM.

For the molecule `Cc1ccc(C(C)(C)C)cc1N1CCc2nn(-c3c(C)cccc3C(C)C)c(-c3ccc(NC(N)=O)cc3)c2C1` [Example 1.388], the IC50 is 5 to 50 nM.

Take `Cc1cccc(C)c1-n1nc2c(c1-c1cc(F)c(NC(N)=O)cc1F)CN(c1ncc(C(C)C)cc1Cl)CC2` [Example 1.113]: the IC50 was not above 5 nM.

For `Cc1cccc(OCC(C)C)c1-n1nc2c(c1-c1ccc(NC(N)=O)cc1)CN(c1cc(C(F)(F)F)ccc1F)CC2` [Example 1.368], the concentration for half-maximal inhibition (IC50) was in the range of 5 to 50 nM.

Regarding `Cc1ccc(C(C)(C)C)cc1N1CCc2nn(-c3ccccc3C(C)C)c(-c3ccc(NC(N)=O)cc3)c2C1` [Example 1.403], the IC50 was in the range of 50 to 500 nM.

In the case of `Cc1cccc(OCC(C)C)c1-n1nc2c(c1-c1ccc(NC(N)=O)cc1)CN(c1ccc(C(F)(F)F)c(Cl)c1)CC2` [Example 1.413], the IC50 lay in the range of 5 to 50 nM.

For `Cc1cccc(OCC(C)C)c1-n1nc2c(c1-c1ccc(NC(N)=O)cc1)CN(Cc1ccc(Cl)cc1C(F)(F)F)CC2` [Example 1.327], the IC50 was not above 5 nM.

As to `CCc1cccc(CC)c1-n1nc2c(c1-c1ccc(NC(N)=O)cc1)CN(Cc1c(Cl)cccc1C(F)(F)F)CC2` [Example 1.297], the concentration for half-maximal inhibition (IC50) is 5 to 50 nM.

For the molecule `COc1ccc(CN2CCc3nn(-c4c(C)cccc4OCC(C)C)c(-c4ccc(NC(N)=O)cc4)c3C2)c(Cl)c1` [Example 1.304], the IC50 was 5 to 50 nM.

As for `CCc1cccc(CC)c1-n1nc2c(c1-c1cc(F)c(NC(N)=O)cc1F)CN(Cc1ccc(Cl)cc1C(F)(F)F)[C@H](C)C2` [Example 1.021], the IC50 is not above 5 nM.

For the molecule `Cc1cccc(OCC(C)C)c1-n1nc2c(c1-c1ccc(NC(N)=O)cc1)CN(Cc1c(C(F)(F)F)ccc(Cl)c1Cl)CC2` [Example 1.333], the IC50 is not above 5 nM.

Take `Cc1ccc(N2CCc3nn(-c4c(C)cccc4OCC(C)C)c(-c4ccc(NC(N)=O)cc4)c3C2)cc1C(F)(F)F` [Example 1.440]: the IC50 fell in the range of 5 to 50 nM.

With `Cc1cccc(C)c1-n1nc2c(c1-c1ccc(C(N)=O)cc1)CN(c1ccccc1C(C)C)CC2` [Example 1.470], the IC50 lay in the range of 5 to 50 nM.

For `Cc1cccc(OCC(C)C)c1-n1nc2c(c1-c1ccc(NC(N)=O)cc1)CN(CC(C)(C)O)CC2` [Example 1.389], the IC50 is more than 500 nM.

`Cc1ccc(C(C)(C)C)cc1N1CCc2nn(-c3c(C)cccc3C)c(-c3ccc(O)cc3)c2C1` [Example 1.452]: the IC50 lay within 5 to 50 nM.

Consider `Cc1cccc(OCC(C)C)c1-n1nc2c(c1-c1ccc(NC(N)=O)cc1)CN(Cc1ccc(Cl)cc1F)CC2` [Example 1.323], for which the IC50 was not above 5 nM.

As to `Cc1cccc(OCC(C)C)c1-n1nc2c(c1-c1ccc(NC(N)=O)cc1)CN(Cc1c(F)cc(F)cc1F)CC2` [Example 1.307], the half-maximal inhibitory concentration (IC50) lay within 5 to 50 nM.

For `CCCCN1CCc2nn(-c3c(C)cccc3OCC(C)C)c(-c3ccc(NC(N)=O)c(F)c3)c2C1` [Example 1.231], the IC50 lay within 5 to 50 nM.

Turning to `Cc1cc(C(C)C)cnc1N1CCc2nn(-c3c(C)cccc3OCC(C)C)c(-c3ccc(NC(N)=O)cc3)c2C1` [Example 1.355], the IC50 was 5 to 50 nM.

As for `COc1cccc(C)c1-n1nc2c(c1-c1ccc(NC(=O)NC(C)(C)C)cc1)CN(c1ccccc1C)CC2` [Example 1.488], the IC50 was more than 500 nM.

On to `Cc1cccc(OCC(C)C)c1-n1nc2c(c1-c1ccc(N)c(F)c1)CN(c1ncc(C(F)(F)F)cc1F)CC2` [Example 1.294], for which the IC50 fell in the range of 5 to 50 nM.

As for `CCc1cccc(CC)c1-n1nc2c(c1-c1cc(F)c(NC(N)=O)cc1F)CN(Cc1ccc(C(F)(F)F)cc1C(F)(F)F)C(C)(C)C2` [Example 1.059], the IC50 is not above 5 nM.

With `Cc1cccc(OCC(C)C)c1-n1nc2c(c1-c1ccc(NC(N)=O)cc1)CN(c1ncc(F)cc1C(F)(F)F)CC2` [Example 1.322], the IC50 is not above 5 nM.

`Cc1ccc(C(C)C)cc1N1CCc2nn(-c3c(C)cccc3OCC(C)C)c(-c3ccc(NC(N)=O)cc3)c2C1` [Example 1.396]: the IC50 lay within 5 to 50 nM.

On to `Cc1cccc(C)c1-n1nc2c(c1-c1cc(F)c(NC(N)=O)cc1F)CN(c1ncc(Cl)cc1F)CC2` [Example 1.132], for which the IC50 is not above 5 nM.

With `Cc1cccc(OCC(C)C)c1-n1nc2c(c1-c1ccc(NC(N)=O)cc1)CN(c1ncc(C(F)(F)F)cc1F)CC2` [Example 1.374], the IC50 lay in the range of 5 to 50 nM.

On to `CCc1cccc(CC)c1-n1nc2c(c1-c1cc(F)c(NC(N)=O)cc1F)CN(Cc1cc(F)ccc1F)CC2` [Example 1.046], for which the IC50 was not above 5 nM.

Consider `CCc1cccc(CC)c1-n1nc2c(c1-c1cc(F)c(NC(N)=O)cc1F)CN(Cc1cnn(CC)c1)CC2` [Example 1.072], for which the IC50 was in the range of 50 to 500 nM.

On to `Cc1cccc(OCC(C)C)c1-n1nc2c(c1-c1ccc(NC(N)=O)cc1)CN(Cc1cc(Cl)ccc1Cl)CC2(C)C` [Example 1.261], for which the IC50 is more than 500 nM.

For the molecule `Cc1cccc(OCC(C)C)c1-n1nc2c(c1-c1ccc(NC(N)=O)cc1)CN(c1cc(C(C)(C)C)ccn1)CC2` [Example 1.395], the IC50 was 5 to 50 nM.

Turning to `Cc1cc(-c2c3c(nn2-c2c(C)cccc2C)CCN(c2ncc(Cl)cc2Cl)C3)c(F)cc1NC(N)=O` [Example 1.097], the IC50 is not above 5 nM.

Consider `CCc1cccc(CC)c1-n1nc2c(c1-c1cc(F)c(NC(N)=O)cc1F)CN(Cc1ccc(Cl)cc1Cl)CC2` [Example 1.073], for which the IC50 is not above 5 nM.

Regarding `Cc1cccc(OCC(C)C)c1-n1nc2c(c1-c1ccc(NC(N)=O)cc1)CN(C(=O)NC(C)(C)C)CC2` [Example 1.437], the IC50 was more than 500 nM.

Take `Cc1cccc(OCC(C)C)c1-n1nc2c(c1-c1ccc(NC(N)=O)cc1)CN(Cc1cccc(C(C)(C)C)c1)CC2` [Example 1.392]: the IC50 was 5 to 50 nM.

Regarding `Cc1cccc(OCC(C)C)c1-n1nc2c(c1-c1ccc(NC(N)=O)c(F)c1)CN(c1ncc(C(F)(F)F)cc1Cl)CC2` [Example 1.276], the IC50 is not above 5 nM.

Turning to `Cc1cc(Cl)cnc1N1CCc2nn(-c3c(C)cccc3OCC(C)C)c(-c3ccc(NC(N)=O)c(F)c3)c2C1` [Example 1.206], the IC50 is not above 5 nM.

Turning to `Cc1cc(NC(N)=O)c(F)cc1-c1c2c(nn1-c1c(C)cccc1C)CCN(c1ccc(C(F)(F)F)cc1F)C2` [Example 1.117], the IC50 is not above 5 nM.
